Consider 19 molecules from PubChem BioAssay (NCI).

Holding throughout (assay): NCI-60 cell line screen, 48 h
Assay [1] deals with SK-MEL-5 melanoma.
Assay [2] concerns A549 NSCLC.
In assay [3] the test system is K-562 leukemia.
The test system of assay [4] is NCI-H226 lung.
In assay [5] the test system is NCI-H23 lung.
For assay [6], the system named is A498 renal.
Assay [7] relates to M14 melanoma.
The test system of assay [8] is UACC-62 melanoma.
Assay [9] has as its system 786-0 renal.
Assay [10] relates to SK-MEL-28 melanoma.

“And” between values parts separate entries of the source, which are not always exact repeats. Equal entries are not always repeated.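 Test compounds were applied to cells in 96-well plates for 48 hours at 5 doses. GI50: concentration for 50% inhibition of growth. At the TGI there is no net growth.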

Take `COc1cc2c(cc1-c1c(C)noc1C)ncc1[nH]c(=O)n([C@H](C)c3ccccn3)c12`: the GI50 in [1] is 2.77 µM; in assay [2], 6.17 µM; in [3], 0.75 µM; in assay [4], 12.1 µM; in assay [5], 6.22 µM; in [6] it was 1.55 µM. Further, the GI50 in assay [7] is 3.19 µM; in [8], 0.145 µM; in assay [9], 5.04 µM; in [10], 0.695 µM. The TGI was more than 44 µM in assay [1]; more than 100 µM in assay [2]; more than 100 µM in assay [3]; more than 100 µM in [4]; more than 100 µM in assay [5]; 13.1 µM in [6]. Further, the TGI in assay [7] is more than 100 µM; in assay [8], more than 87.2 µM; in assay [9], more than 100 µM; in assay [10], more than 90.7 µM.

As for `C[n+]1ccc2[nH]c3ccccc3c2c1`, the TGI in [1], in assay [2], in assay [3], in assay [4], in assay [5] and in assay [6] was more than 100 µM throughout. Also, the TGI in [7], in assay [8], in [9] and in [10] was more than 100 µM each time.

Take `CN(C(=O)C1CC1)C1C2CN3CCC(O2)C13` (stereo unspecified): the TGI in assay [1], in assay [2], in assay [3], in [4], in assay [5] and in assay [6] was more than 100 µM in each case. Further, the TGI in assay [7], in [8], in [9] and in [10] was more than 100 µM throughout.

As to `COc1cccc2cc(N(C)c3nc(C)nc4ccsc34)ccc12`, the GI50 in [1] was less than 0.01 µM; in assay [2], less than 0.01 µM; in [3] it was less than 0.01 µM; in assay [4], less than 0.015 µM; in assay [5], less than 0.01 µM; in assay [6], less than 0.01 µM. The GI50 in assay [7] was less than 0.01 µM; in assay [8] it was less than 0.01 µM; in assay [9], less than 0.01 µM; in [10], 1.53 µM. In addition, the TGI was less than 0.01 µM in assay [1]; 16 µM in [2]; more than 48.6 µM in [3]; 19.8 µM in [4]; 18 µM in [5]; less than 0.015 µM in assay [6]. Also, the TGI in [7] was 12.6 µM; in assay [8] it was 12.5 µM; in assay [9], 12.3 µM; in [10] it was 20 µM.

In the case of `COC(=O)NN=C1C(C)(C)C(=NNC(=O)OC)C1(C)C`, the TGI in [1] is more than 100 µM; in assay [2] it was more than 100 µM; in assay [3], more than 100 µM; in assay [4], more than 100 µM; in [5] it was more than 78.1 µM; in assay [6] it was more than 100 µM. Also, the TGI in assay [7], in assay [8], in [9] and in [10] was more than 100 µM throughout.

As for `Cc1sc2c(c1C)C(c1ccc(Cl)cc1)=N[C@@H](CC(=O)Nc1ccc(O)cc1)c1nnc(C)n1-2`, the GI50 in assay [1] is 0.472 µM; in [2], 2.6 µM; in [3] it was 0.499 µM; in [4], 4.48 µM; in [5] it was 7.98 µM; in assay [6], 0.204 µM. The GI50 is 0.276 µM in [7], 0.162 µM in assay [8], 0.837 µM in assay [9] and 5.31 µM in assay [10]. The TGI amounted to 14.9 µM in assay [1]; 26.8 µM in assay [2]; 60.3 µM in assay [3]; 26 µM in assay [4]; 39.2 µM in [5]; 2.48 µM in [6]. In addition, the TGI in assay [7] is 20.2 µM; in assay [8], 18.1 µM; in assay [9], 24.8 µM; in assay [10], 26.4 µM.

Consider `N=C(N)Cn1cnc2ccccc21`, for which the TGI in assay [1], in assay [2], in assay [3], in assay [4], in [5] and in assay [6] was more than 100 µM throughout. The TGI in assay [7], in assay [8], in assay [9] and in assay [10] was more than 100 µM in each case.

On to `Cc1cc(Cl)ccc1Nc1nc(C(F)(F)F)ccc1C(=O)N/N=C/c1ccc(N(C)C)cc1`, for which the GI50 in assay [1] was 2.56 µM; in assay [2] it was 3.86 µM; in assay [3], 1.93 µM; in assay [4] it was 2.29 µM; in assay [5] it was 3.92 µM; in assay [6], 2.59 µM. Also, the GI50 is 1.2 µM in assay [7], 2.29 µM in assay [8], 0.997 µM in [9] and 3.81 µM in assay [10]. Moreover, the TGI in assay [1], in [2], in assay [3], in assay [4], in assay [5] and in assay [6] was more than 100 µM in each case. For the same molecule, the TGI was 8.75 µM in assay [7], more than 100 µM in [8], more than 100 µM in assay [9] and more than 100 µM in [10].

With `CCN1CCC(O)(c2ccc(Cl)c(Cl)c2)C(C(=O)c2ccc(Cl)c(Cl)c2)C1` (stereo unspecified), the TGI stood at 31.5 µM in [1]; 40.7 µM in assay [2]; 37.7 µM in assay [3]; 40.1 µM in assay [4]; 36.3 µM in assay [5]; 40.2 µM in assay [6]. In addition, the TGI in assay [7] came to 30.9 µM; in [8], 31.5 µM; in [9], 29.1 µM; in assay [10], 33 µM.

As for `COc1cc(/C=N/O)nc(-c2ccccn2)c1`, the TGI in assay [1] is 1.31 µM; in assay [2] it was more than 100 µM; in assay [3] it was more than 100 µM; in [4], 5.93 µM; in assay [5], more than 100 µM; in assay [6] it was 19.4 µM. In addition, the TGI is 4.98 µM in assay [7], 2.7 µM in assay [8], 27.5 µM in assay [9] and more than 100 µM in [10]. Besides, the GI50 was 0.325 µM in assay [4]; 0.717 µM in assay [6]; 0.325 µM in assay [8]; 0.465 µM in assay [9]; 0.476 µM in [10].

With `Oc1cccc2nc3cc(CN4CCOCC4)c(CN4CCOCC4)cc3nc12`, the TGI in [1] is 55.3 µM; in assay [2], more than 100 µM; in assay [3], more than 100 µM; in assay [4], more than 100 µM; in [5], more than 100 µM; in assay [6], more than 100 µM. Besides, the TGI in [7] is 38.9 µM; in [8], 76.8 µM; in assay [9], more than 100 µM; in assay [10], more than 100 µM.

On to `CCCCc1oc2ccccc2c1C(=O)c1cc(I)c(OCCN(CC)CC)c(I)c1`, for which the TGI in assay [1] is 2.76 µM; in assay [2], 15.8 µM and 70.3 µM; in assay [3], 9.87 µM; in assay [4], 12.7 µM and 8.55 µM; in [5], 8.87 µM and 18 µM; in assay [6], 14.3 µM. Moreover, the TGI in [7] is 4.78 µM; in assay [8], 3.83 µM; in assay [9], 3.31 µM; in assay [10], 4 µM and 10.1 µM. Further, the GI50 in assay [2] was 3.72 µM; in assay [4] it was 2.84 µM; in [5], 2.67 µM; in assay [7], 2.18 µM; in assay [9] it was 1.64 µM; in assay [10], 1.91 µM.

As for `CCCCCCCCCCCCCCCCCCOCC1(COP(=O)([O-])OCC[N+](C)(C)C)CCCO1` (stereo unspecified), the TGI in assay [1] was determined as 27.7 µM; in [2], 20.6 µM; in assay [3] it was 31.7 µM; in assay [4], 20.1 µM; in assay [5] it was 31.9 µM; in assay [6] it was 11.8 µM. Moreover, the TGI in assay [7] was 8.59 µM; in assay [8], 21.4 µM; in [9] it was 13.6 µM; in [10] it was 32.2 µM.

`CC(=O)NNc1nc(C)c(C(/C=C/c2ccc(Cl)cc2)=N/NC(=S)NN)s1`: the TGI in [1], in assay [2], in assay [3], in [4], in assay [5] and in assay [6] was more than 100 µM in each case. The TGI in [7], in assay [8], in assay [9] and in assay [10] was more than 100 µM each time.

Regarding `Cn1c(=O)c2[nH]cnc2n(CC(=O)O)c1=O`, the TGI in assay [1], in assay [2], in assay [3], in assay [4], in [5] and in assay [6] was more than 100 µM in each case. The TGI in [7], in assay [8], in [9] and in assay [10] was more than 100 µM in each case.

On to `O=C(Nn1c2c(sc1=NC1CC1)C(=O)c1ccccc1C2=O)c1cc2ccc1CCc1ccc(cc1)CC2`, for which the GI50 in assay [1] was 1.43 µM; in assay [2] it was 2.42 µM; in assay [3], 2.43 µM; in [4] it was 1.81 µM; in assay [5] it was 1.31 µM; in assay [6], 20.7 µM. In addition, the GI50 is 1.33 µM in assay [7], 1.62 µM in assay [8], 2.75 µM in [9] and 2.4 µM in assay [10]. The TGI in [1] was 2.76 µM; in assay [2], 6.07 µM; in assay [3] it was more than 100 µM; in assay [4], 5.83 µM; in [5] it was 4.32 µM; in assay [6], 63.4 µM. The TGI turned out to be 2.83 µM in assay [7], 3.52 µM in assay [8], 7.93 µM in assay [9] and 5.22 µM in assay [10].

In the case of `CCOC(=O)c1cn2ncnc(Oc3ccc(NC(=O)NCCN(CC)CC)c(Cl)c3)c2c1C`, the GI50 is 1.81 µM in assay [1]; 15.8 µM in assay [2]; 2.01 µM in [3]; 17.9 µM in [4]; 10.4 µM in assay [5]; 2.15 µM in assay [6]. The GI50 in assay [7] is 1.89 µM; in assay [8], 1.95 µM; in assay [9], 1.89 µM; in assay [10], 1.69 µM. Further, the TGI in [1] was 3.3 µM; in [2], 40.2 µM; in [3], 4.48 µM; in assay [4] it was more than 100 µM; in assay [5], 26 µM; in [6] it was 8.08 µM. Moreover, the TGI in assay [7] came to 3.75 µM; in assay [8], 3.72 µM; in [9], 3.75 µM; in [10], 3.15 µM.

For the molecule `C[C@@H]1CCC2[C@@H](C)[C@H](OC(=O)CCC(=O)NCCNC(=O)Cc3cc(=O)oc4cc(N(C)C)ccc34)O[C@@H]3O[C@]4(C)CC[C@@H]1C23OO4` (stereo partly specified), the GI50 is 1.48 µM in assay [1]; 4.52 µM in [2]; 0.348 µM in [3]; 7.81 µM in [4]; 0.749 µM in [5]; 7.5 µM in assay [6]. Further, the GI50 in assay [7] was 2.13 µM; in assay [8] it was 0.711 µM; in assay [9], 4.24 µM; in [10], 17.4 µM. For the same molecule, the TGI in assay [1] is more than 39.3 µM; in assay [2], 23.1 µM; in [3], 13.8 µM; in [4], 35.2 µM; in assay [5], 46.6 µM; in [6], more than 89.9 µM. The TGI is more than 74.5 µM in [7], more than 91 µM in [8], 65.2 µM in [9] and more than 100 µM in assay [10].

Take `NC(=O)N/N=C1/CCCC/C1=C\c1ccccc1`: the TGI in assay [1], in assay [2], in assay [3], in assay [4], in assay [5] and in [6] was more than 100 µM each time. Moreover, the TGI in [7], in assay [8], in assay [9] and in assay [10] was more than 100 µM throughout.
